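Tested at 5 concentrations; 48 h exposure; 96-well plates; endpoints linearly interpolated, else capped at highest concentration. At the GI50, growth is halved.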 Activity calls are given as the source filed them. Cut-off read from the data, not from the text of the source: active = GI50 up to about 1.1 µM and inactive = higher.
Legend:
Assay in all cases: NCI tumour cell line growth inhibition, 48 h
SK-MEL-28 = system: SK-MEL-28
SNB-19 = system: SNB-19
SNB-75 = system: SNB-75
ACHN = system: ACHN
K562 = system: K562
786-0 = system: 786-0
NCI-H23 = system: NCI-H23
T47D = system: T47D
SN12C = system: SN12C
OVCAR-4 = system: OVCAR-4
SF-268 = system: SF-268
SF-539 = system: SF-539
HOP-62 = system: HOP-62
HT-29 = system: HT-29
PC-3 = system: PC-3
BT-549 = system: BT-549

Measured: GI50

CCOC(=O)C1(N)CC1
inactive: SK-MEL-28 > 100 µM | SNB-19 > 100 µM | SNB-75 > 100 µM | ACHN > 100 µM | K562 > 100 µM | 786-0 > 100 µM | NCI-H23 > 100 µM | T47D 56.8 µM | SN12C > 100 µM | OVCAR-4 > 100 µM | SF-268 > 100 µM | SF-539 > 100 µM | HOP-62 > 100 µM | HT-29 > 100 µM | PC-3 71 µM

Cn1c(=O)c2ccccc2[n+]2c(-c3cccc([N+](=O)[O-])c3)csc12
inactive: SK-MEL-28 > 100 µM | SNB-19 > 100 µM | SNB-75 12.9 µM | ACHN > 100 µM | K562 36.7 µM | 786-0 54.3 µM | NCI-H23 > 100 µM | T47D > 100 µM | SN12C > 100 µM | OVCAR-4 > 100 µM | SF-268 26.5 µM | SF-539 59.6 µM | HOP-62 21.2 µM | HT-29 41.3 µM | PC-3 50.5 µM

CCOC(=O)/C=C/CCC(C)(C)COC(C)=O
inactive: SK-MEL-28 > 10 µM | SNB-19 > 10 µM | SNB-75 > 10 µM | ACHN > 10 µM | K562 > 10 µM | 786-0 > 10 µM | NCI-H23 > 10 µM | T47D > 10 µM | SN12C > 10 µM | OVCAR-4 > 10 µM | SF-268 > 10 µM | SF-539 > 10 µM | HOP-62 > 10 µM | HT-29 > 10 µM | PC-3 > 10 µM

CCc1cc2c(oc3c4ccccc4ccc23)c(=O)[nH]1
inactive: SNB-19 > 10 µM | SNB-75 > 10 µM | ACHN > 10 µM | K562 > 10 µM | 786-0 > 10 µM | NCI-H23 > 10 µM | OVCAR-4 > 10 µM | SF-268 > 10 µM | SF-539 > 10 µM | BT-549 > 10 µM | HT-29 > 10 µM | PC-3 > 10 µM

O=C(Nc1cccc(C(F)(F)F)c1)O/N=C(/Cl)CCl
inactive: SK-MEL-28 41.5 µM | SNB-19 > 100 µM | SNB-75 > 100 µM | ACHN > 100 µM | K562 29.6 µM | 786-0 40.5 µM | NCI-H23 47.3 µM | T47D 53.5 µM | SN12C 56 µM | OVCAR-4 63.2 µM | SF-268 > 100 µM | SF-539 > 100 µM | HOP-62 > 100 µM | HT-29 51.9 µM | PC-3 96.6 µM

CN1CNc2nc(N)n(C)c(=O)c2C1
inactive: SNB-19 > 10 µM | SNB-75 7.46 µM | ACHN > 10 µM | K562 > 10 µM | 786-0 > 10 µM | NCI-H23 > 10 µM | SN12C > 10 µM | OVCAR-4 > 10 µM | SF-268 > 10 µM | SF-539 > 10 µM | BT-549 > 10 µM | HT-29 > 10 µM

O=S(=O)(/N=S(/Nc1ccccc1)C(F)(F)Cl)c1ccccc1 (stereo not drawn)
inactive: SK-MEL-28 > 100 µM | SNB-19 > 100 µM | SNB-75 > 100 µM | ACHN > 100 µM | K562 > 100 µM | 786-0 > 100 µM | NCI-H23 > 100 µM | T47D > 100 µM | SN12C > 100 µM | OVCAR-4 > 100 µM | SF-268 > 100 µM | SF-539 > 100 µM | HOP-62 > 100 µM | HT-29 > 100 µM | PC-3 > 100 µM

COc1ccc(/C=C2/NC(=S)N=C2Cl)cc1
inactive: SK-MEL-28 > 100 µM | SNB-19 > 100 µM | SNB-75 > 100 µM | ACHN > 100 µM | K562 > 100 µM | 786-0 > 100 µM | NCI-H23 > 100 µM | T47D > 100 µM | SN12C > 100 µM | OVCAR-4 > 100 µM | SF-268 > 100 µM | SF-539 > 100 µM | HOP-62 > 100 µM | HT-29 > 100 µM | PC-3 > 100 µM

Cc1ccc(CC[PH](=O)CCc2ccc(C)nc2)cn1
inactive: SK-MEL-28 > 100 µM | SNB-19 > 100 µM | ACHN > 100 µM | K562 > 100 µM | 786-0 > 100 µM | NCI-H23 > 100 µM | T47D > 100 µM | SN12C > 100 µM | OVCAR-4 > 100 µM | SF-268 > 100 µM | SF-539 > 100 µM | HOP-62 > 100 µM | HT-29 > 100 µM | PC-3 > 100 µM

CCOC(=O)c1sc2c(c1OC(=O)c1ccco1)c(=O)n(-c1ccccc1)c(=S)n2-c1ccccc1
inactive: SK-MEL-28 60.5 µM | SNB-19 33.2 µM | SNB-75 25.9 µM | ACHN 27.5 µM | K562 30.4 µM | 786-0 28.9 µM | NCI-H23 28.7 µM | T47D 65.6 µM | SN12C 23.7 µM | OVCAR-4 26.8 µM | SF-268 46.1 µM | SF-539 30.7 µM | HOP-62 32.1 µM | HT-29 55.2 µM | PC-3 21.4 µM

From ChEMBL document CHEMBL1201862, “PubChem BioAssay data set” (2004)
